Patent US11096968B2, “Use of anti-aging glycoprotein for enhancing survival of neurosensory precursor cells” (PROTOKINETIX INC., priority 2016, dated 2021)

Assays:
[1] = tested on: photoreceptor precursor cells (PPCs); test: MTT assay of cultured PPCs treated with increasing amounts of PGE2; format: cell-based, human; settings: PPCs cultured 48 hours with increasing PGE2, up to 50 μM; n=4
Description: (§1) FIG. 2 illustrates that AAGP™ reduces the amount of prostaglandin E2 (PGE2) secreted by degenerating explants and the level of COX-2 expression. PGE2 is toxic to photoreceptor precursor cells (PPCs). (A) Rat retinal explants were cultured in explant medium with or without 4 mg/ml AAGP (n=3 for each condition). Explant media was replaced after 24 hours and replenished every other day with medium not containing AAGP. After ten days, explant medium was collected and processed for PGE2 ELISA. Histograms represent the amount of PGE2 (pg/ml) present in the explant medium. (B) COX-2 expression was assessed by RT-qPCR in stressed ARPE-19 cells in the presence or absence of 4 mg/ml AAGP (n=4). Histograms represent fold change in COX-2 expression, normalized to GAPDH. […]
Firstly, the amount of PGE2 produced is determined within the ex vivo system under normal culture conditions and after media is supplemented with 4 mg/ml AAGP for the first 24 hours of co-culture. Three equal-sized retinal quadrants, measuring ˜10 mm^2 each, and are analyzed for each condition. Explant media are collected at the end of 10 days and assessed for concentration of PGE2 by enzyme-linked immunosorbent assay (ELISA; R&D Systems). PGE2 induced reduction in metabolic activity, contributing to cell death, is assessed in PPCs cultured in isolation using a Thiazolyl Blue Tetrazolium Bromide (MTT) assay (Sigma). […]

[2] = tested on: prostaglandin E2 (PGE2) secreted by degenerating retinal explants; test: PGE2 ELISA of explant medium from ex vivo retinal explant/RPE co-culture; format: cell-based, rat; settings: 4 mg/ml AAGP present for the first day, medium collected after 10 days of co-culture; n=3; p<0.05; without AAGP ~20 pg/ml
Description: as §1
Firstly, the amount of PGE2 produced is determined within the ex vivo system under normal culture conditions and after media is supplemented with 4 mg/ml AAGP for the first 24 hours of co-culture. Three equal-sized retinal quadrants, measuring ˜10 mm^2 each, and are analyzed for each condition. Explant media are collected at the end of 10 days and assessed for concentration of PGE2 by enzyme-linked immunosorbent assay (ELISA; R&D Systems). PGE2 induced reduction in metabolic activity, contributing to cell death, is assessed in PPCs cultured in isolation using a Thiazolyl Blue Tetrazolium Bromide (MTT) assay (Sigma).

[3] = tested on: COX-2 expression in stressed ARPE-19 cells; test: COX-2 expression by RT-qPCR in ARPE-19 cell stress assay (IL-1β followed by ATP); format: cell-based, human; settings: stressed ARPE-19 cells (17 ng/ml IL-1β 8 h, then 5 mM ATP 1 h) in presence of 4 mg/ml AAGP; normalized to GAPDH; n=4
Description: as §1, with “GAPDH. (C) Cultured PPCs were treated with increasing amounts of PGE2 for 48 hours, followed by the MTT assay (n=4).” for “GAPDH.”
To determine whether AAGP™ inhibits COX-2 expression, ARPE-19 cells (Dunn et al., 1996) are treated with 17 ng/ml Interleukin 1β (IL-1β; Sigma; Lukiw et al., 2006) for 8 hours and then added 5 mM ATP for 1 hour to further induce cell stress (Sigma; Mehta et al., 2001). […] COX-2 expression is assessed using Reverse Transcription Quantitative Polymerase Chain Reaction (RT-qPCR) with the TaqMan® primer/probe system, Fast Advanced Master Mix and the ViiA™ 7 Real Time PCR system (Applied Biosystems). […]

[4] = tested on: photoreceptor precursor cells (PPCs); test: PPC survival in ex vivo co-culture system, viable labelled PPCs counted by FACS; format: cell-based, human; settings: PPCs pre-treated 24 hours with 4 mg/ml AAGP, 10 days of co-culture
Description: FIG. 3 illustrates that Cell survival is enhanced by pre-incubation with AAGP™. Untreated or AAGP™-treated PPCs are fluorescently labelled and placed between retinal explants and RPE for ten days (n=4). Live PPCs are separated by Fluorescence-Activated Cell Sorting and the proportion of cells surviving after 10 days of co-culture was calculated. Percent cell survival of untreated and AAGP-treated PPCs was plotted ( ? ) and for each condition the average±SEM is represented by a thick black line.
To determine whether AAGP™ improves PPC survival in the ex vivo system, PPC cell viability is assessed with and without pre-treating cell grafts with AAGP™ for 24 hours prior to inclusion within the ex vivo system. PPCs are labelled with 20 μM CellTrace™ Far Red DDAO-SE (Life Technologies). […] After 10 days, the components of the co-culture system are enzymatically dissociated into single cell suspensions and the number of viable PPCs is assessed by Fluorescence-Activated Cell Sorting (FACS; Influx Sorter; BD Biosciences).
Finally, the viability of PPCs in the ex vivo system is tested. […] Ten days later, the co-cultured components were dissociated into single cells and viable PPCs (labeled red) were separated by Fluorescence activated cell sorting (FACS, FIG. 3). The proportion of live cells remaining after 10 days of co-culture is calculated. […]

[5] = tested on: PPCs; test: Toxicity of AAGP to PPCs (unpublished data); format: cell-based, human; settings: 4 mg/ml
Description: Now referring to FIG. 1, within the ex vivo system, rat neurosensory retinal explants are incubated upon human embryonic stem cells (hESC) derived retinal pigment epithelium (RPE). Neurosensory retina was obtained from the S334ter-4 model of retinal degeneration (Chen et al, 1995) and cultured within the system for 10 days (for detailed experimental design see Yanai et al., 2015). Rodent retinal tissue collection was carried out with approval of the Animal Care Committee at the University of British Columbia and in accordance with the Association for Research in Vision and Ophthalmology Statement for the Use of Animals in Ophthalmic and Vision Research. Throughout the present study, AAGP™ was used at 4 mg/ml, after it was confirmed it was not toxic to PPCs at this concentration (unpublished data).

Row | SMILES | reduction of cell survival (MTT) [1] | amount of PGE2 in explant medium [2] | decline in COX-2 expression [3] | increase in average cell viability vs. untreated PPCs [4] | toxicity to PPCs [5]
1 | CCCCC[C@H](O)/C=C/[C@H]1[C@H](O)CC(=O)[C@@H]1C/C=C\CCCC(=O)O [PGE2, prostaglandin E2] | up to 44% |  |  |  | 
2 | C[C@H](NC(=O)[C@H](C)NC(=O)[C@@H](N)CCCCNC(=O)C(F)(F)C1(O)O[C@H](CO)[C@H](O)[C@H](O)[C@H]1O)C(=O)O (some centres unmarked) [AAGP™] |  | ~7.5 pg/mL | at least 13.3±4.5 fold | ~3 fold | not toxic
